Measurements taken from patent US20250195519A1, “COMBINATION OF DASATINIB AND LOVASTATIN FOR USE IN METHODS FOR THE TREATMENT OF CARDIAC FIBROSIS” (INSERM (INSTITUT NATIONAL DE LA SANTÉ ET DE LA RECHERCHE …, priority 2022, published 2025).
Like-named read-outs stand apart in the source and are kept apart here.

Test system: human cardiac fibroblasts
Conditions: 72 h, 10 ng/ml TGFβ; for effect on TGFβ-induced collagen production: Sirius Red
Experimental: Primary cardiac fibroblasts were isolated and cultured according to the method described previously [11]. […] The suspension was centrifuged at 300 g for 5 min and the cell pellet was resuspended in DMEM F12 medium (Sigma D6434) supplemented with 10% FBS, penicillin (20 U/mL)-streptomycin (20 μg/mL) and 2 mM glutamine and cultured in a 37° C., 5% CO2 incubator. Primary cardiac fibroblasts were used up to passage 3. Cardiac fibroblasts were exposed to 10 ng/ml TGFβ (T) for 72 h in the presence or absence of 5 μM lovastatin (L) or 5 nM dasatinib (D) or combination of 5 μM lovastatin and 5 nM dasatinib (DL).
Following treatment, cardiac fibroblasts were fixed in methanol, and incubated in the 0.1% Picrosirius red staining solution (Sigma-Aldrich, France) as per manufacturer's instructions.
Picrosirius red was solubilised in 0.1 N sodium hydroxide and the optical density was read at 540 nm (SERLABO Technologies, France).
Data are expressed as mean±SEM. Comparison between two groups was performed by Student's two-tailed t-test while comparison of multiple groups was performed by one-way ANOVA followed by a Bonferroni's post hoc test using GraphPad Prism version 5.00 (GraphPad Software, Inc).

| Structure (SMILES) | collagen values relative to control (5 μM lovastatin) | effect on TGFβ-induced collagen production (5 μM lovastatin) | collagen values relative to control (5 nM dasatinib) | effect on TGFβ-induced collagen production (5 nM dasatinib) |
| --- | --- | --- | --- | --- |
| CCC(C)C(=O)OC1CC(C)C=C2C=CC(C)C(CCC3CC(O)CC(=O)O3)C21 (stereo not shown) [lovastatin, [8-[2-(4-hydroxy-6-oxo-oxan-2-yl)ethyl]-3,7-dimethyl-1,2,3,7,8,8a-hexahydronaphthalen-1-yl] 2-methylbutanoate] | did not reach control values | modest but significant effects | – | – |
| Cc1nc(Nc2ncc(C(=O)Nc3c(C)cccc3Cl)s2)cc(N2CCN(CCO)CC2)n1 [dasatinib, N-(2-chloro-6-methylphenyl)-2-[6-[4-(2-hydroxyethyl)-1-piperazinyl]-2-methyl-4-pyrimidinyl]amino]-5-thiazole carboxamide monohydrate] | – | – | did not reach control values | modest but significant effects |
